Values of other authors, collected in publication PMC4365270 (Cancer Chemotherapy and Pharmacology, 2015).

Design: method as in earlier work
Conditions: higher doses; cited from earlier work

CC[C@H](NC(=O)[C@H](C)NC)C(=O)N1C[C@@H](O)C[C@H]1Cc1c(-c2[nH]c3cc(F)ccc3c2C[C@@H]2C[C@H](O)CN2C(=O)[C@H](CC)NC(=O)[C@H](C)NC)[nH]c2cc(F)ccc12 [birinapant]
Bell’s Palsy syndrome: increased incidence
